Literature values, collected in patent US6921530B1, “Low dose IL-2 for potentiation of immunity” (Cornell Research Foundation, Inc., priority 1999, dated 2005).
Several values for one entry are separate records, joined by “and”; a condition that tells them apart may be missing. Identical values can stand only once.

Tested on: HCV
Conditions: cited from earlier work

Interferon-α [IFN-α]
sustained response, % of patients (3×10^6 units s.c. three times a week over one year, monotherapy): 35% and 28-43% | initial delay before decline of plasma HCV viral load (daily IFN therapy): 9 h
